Experimental data as given in patent US20130224239A1, “ALCOHOLIC EXTRACT OF FUNGI OF GENUS […] AND USE THEREOF” (KING SAUD UNIVERSITY, priority 2011, published 2013).
≈ marks a conversion by molar mass, not a printed value. Like-named read-outs stand apart in the source and are kept apart here. Marks after values point to notes of the source that are not given here.

Tests used:
[1] = test system: Penicllium expansum (RCMB 1006); experiment: Antimicrobial screening, disc diffusion; type: cell-based; conditions: Penicillium expansum; for zone of inhibition at 1000 µg/mL: RCMB1006, Standard Antibiotics (1 mg/ml), read-out: Diameter of inhibition zone; for Diameter of inhibition zone: compounds isolated from Cunninghamella elegans
Description: (§1) The alcoholic extracts obtained were used for testing their antimicrobial activity. Each extract (0.5 g) was dissolved in 10 ml water. Same concentrations for the successive extracts (using diethyl ether, chloroform, ethyl acetate and n-butanol) were also prepared.
(§2) The representatives of Gram negative bacteria, namely Salmonella typhimuium (RCMB 0104), Escherichia coli (RCMB 0103), Pseudomonas aeruginosa (RCMB 0102) and Gram positive bacteria, namely Bacillus subtilis (RCMB 0107), Staphylococcus aureus (RCMB 0106), Streptococcus pyogenes (RCMB 0109), unicellular fungi, namely Candida albicans (RCMB 5002) and filamentous fungi, namely Aspergillus fumigatus (RCMB 2003) and Penicllium expansum (RCMB 1006) were used as test organisms (RCMB: The Regional Center for Mycology and Biotechnology, Al-azhar University Nasser City, Cairo, Egypt).
(§3) For antimicrobial screening the well known disc diffusion and agar well diffusion methods were used, together with the determination of minimum inhibitory concentration (MIC), see Duguid et al., Microbial Infections, The English Language Book Society, Churchill Livingston, Edingburgh, London, 1978; vol. 1, page 110.
(§4) Disc diffusion method: The agar disc diffusion method is employed for the determination of antimicrobial activities of the extracts of the investigated fungal species. Sterilized paper discs (Whatman No. 1) ([…]) were separately soaked in the extracts and transferred onto the surface of growth media seeded with the test organism. After incubation period, following suitable conditions for the test organism, the diameter of the inhibition zone around the discs was measured in millimeters. The obtained result was the mean of three experiments.
(§5) Each fungal species was grown on malt extract media at 28±2° C. for 14 days. The metabolites of the fungal species were screened for antimicrobial activity. The inhibition zones around each disc were measured, in millimeter, and recorded (Tables 1).

[2] = test system: Candida albicans (RCMB 5002); experiment: Antimicrobial screening, disc diffusion; type: cell-based; conditions: for zone of inhibition at 1000 µg/mL: RCMB5002, Standard Antibiotics (1 mg/ml), read-out: Diameter of inhibition zone; for Diameter of inhibition zone: compounds isolated from Cunninghamella elegans
Description: as §1, §2, §3, §4, §5

[3] = test system: Aspergillus fumigatus (RCMB 2003); experiment: Antimicrobial screening, disc diffusion; type: cell-based; conditions: for zone of inhibition at 1000 µg/mL: RCMB2003, Standard Antibiotics (1 mg/ml), read-out: Diameter of inhibition zone; for Diameter of inhibition zone: compounds isolated from Cunninghamella elegans
Description: as §1, §2, §3, §4, §5

[4] = test system: Pseudomonas aeruginosa (RCMB 0102); experiment: Antimicrobial screening, disc diffusion; type: cell-based; conditions: Pseudomonas aeurginosa
Description: as §1, §2, §3, §4, §5

[5] = test system: Escherichia coli (RCMB 0103); experiment: Antimicrobial screening, disc diffusion; type: cell-based
Description: as §1, §2, §3, §4, §5

[6] = test system: Streptococcus pyogenes (RCMB 0109); experiment: Antimicrobial screening, disc diffusion; type: cell-based
Description: as §1, §2, §3, §4, §5

[7] = test system: Bacillus subtilis (RCMB 0107); experiment: Antimicrobial screening, disc diffusion; type: cell-based
Description: as §1, §2, §3, §4, §5

[8] = test system: Staphylococcus aureus (RCMB 0106); experiment: Antimicrobial screening, disc diffusion; type: cell-based
Description: as §1, §2, §3, §4, §5

[9] = test system: Salmonella typhimuium (RCMB 0104); experiment: Antimicrobial screening, disc diffusion; type: cell-based; conditions: Salmonella typhimuim
Description: as §1, §2, §3
as §4, with “millimeters.” for “millimeters. The obtained result was the mean of three experiments.”
Each fungal species was grown on malt extract media at 28±2° C. for 14 days. The metabolites of the fungal species were screened for antimicrobial activity.

Staphylococcus aureus = experiment: Minimum inhibitory concentration, agar well diffusion; type: cell-based; conditions: for MIC: read-out: Minimum inhibitory concentration
Excerpt: as §3
Agar well diffusion method: On the other hand, the agar well diffusion method was employed for determination of the minimum inhibitory concentration (MIC). The test organisms were separately seeded in the agar medium. The wells (10 mm in diameter) were cut from the agar and […] (different concentrations) was transferred into them. After incubation period, following suitable conditions for the test organism, the diameter of the inhibition zone around the discs was measured in millimeters. The obtained result was the mean of three experiments.
The minimum inhibitory concentration (MIC) of Cunninghamella blakesleeana, C. elegans, C. homothallica and successive extracts and isolated compounds of Cunninghamella elegans against Staphylococcus aureus was determined.
Minimum inhibitory concentration (MIC): The lowest concentration of an antimicrobial agent that will inhibit a visible growth of a microorganism after overnight incubation.

[10] = test system: Staphylococcus aureus infected wounds; experiment: Wound healing activity, excision wound model; type: in vivo, guinea pig
Description: Swiss albino mice (20-25 g), male Sprague-Dawley rats (160-180 g) and male guinea pigs (240-260 g) were employed in the study. The animals were left for 2 weeks at room conditions to ensure stabilization before use. They were maintained on standard pellet diet and water ad libitum throughout the experiment. • a) Acute Toxicity: Mice were divided into groups of 6 and the methanol extracts of C. blakesleeana, C. elegans and C. homothallica were administered orally in increasing doses. […] Rats of the 1^St group were given a vehicle (1% v/v Tween 80) in a dose of 5 ml kg^−1 and left as normal control. Rats of the 2nd, 3rd, and 4th groups were administered the methanol extracts of C. blakesleeana, C. elegans and C. homothallica, respectively in a dose of 200 mg kg^−1. All medications were administered orally via the aid of an oral tube for 35 days. […] At the end of the experimental period, blood samples (2 mL) were collected from the retro-orbital venous plexus of each rat (under ether anesthesia) into clean centrifuge tubes. The blood samples were allowed to clot at room temperature for 30 min after which they were centrifuged at 10,000 rpm for 5 minutes. Sera were separate with Pasteur pipette into sterile serum sample tubes and used for biochemical assay.
Measurement of Liver and Kidney Function Markers: • Liver functions were evaluated by measuring the serum activity of aspartate aminotransferase (AST) and alanine aminotransferase (ALT) following the method of Reitman and Frankel, Am. J. Clin. Path., 28: 55-60, alkaline phosphatase enzyme (ALP) by the method of Babson et al., Clinical Chemistry, 12: 482-490. Serum levels of total bilirubin, total proteins and albumin were also assayed. Globulin was obtained from the difference between total proteins and albumin. Serum concentrations of uric acid, urea and creatinine were determined colormetrically as measures of kidney functions. All measurements were carried out by protocols well known in the art. • c) Wound Healing Activity: The excision wound model was used to monitor wound contraction and wound closure time. Four groups of male guinea pigs were used in the experiment with 6 animals in each group. At the beginning of the experiment, the dorsal skin of each guinea pig was shaved with an electric clipper. After 24 hours, all animals were anesthetized by diethyl ether and the shaved areas were sterilized with 70% alcoholic solution. A predetermined dorsal area (15 mm×20 mm) was inflicted by cutting away a full thickness of skin (2 mm depth) using toothed forceps, scalpel and pointed scissors. A fresh surgical blade was used for the perpendicular cut in each animal and tension of skin was kept constant during the procedure. Local infection with Staphylococcus aureus was introduced into wounds using 0.5 mL of 10^8 bacteria mL^−1 inoculums. The wounds were left undressed to the open environment and the animals were kept individually in separate cages. • Wounds treatment: Wounds were air exposed and treatment began 24 h after injury. Wounds of the control animals were treated with the vehicle (1% v/v Tween 80). Guinea pigs of the second and third group were treated with total alcohol extract of C. elegans and the isolated compound (adenosine) in a concentration of 5 mg mL^−1, while animals of the fourth group were medicated with latamoxef (Moxalactam)® in a concentration of 30 μg mL^−1 (Reference group). The vehicle, extract, and reference drug were applied topically on the wound surface once a day for 18 days. […] of each tested material was applied slowly, using an insulin syringe, from the central point extending outside the wound area to ensure inclusion of the edges. Swabs were taken on day 5 to confirm the presence of the expected organisms in the pus. • Assessment of wound healing: The wound areas were measured while the animals were under anaesthesia on days 0, 4, 7, 10, 14, and 18 post-wounding by tracing the wound areas onto a transparent tracing paper. […]

[11] = compounds isolated from Cunninghamella elegans
[12] = topical 30 μg mL^−1 once a day, n = 6
[13] = topical 30 μg mL^−1 once a day, n = 6, listed as latamoxef

Molecule | Diameter of inhibition zone [4, 11] [mm] | Diameter of inhibition zone [1] [mm] | Diameter of inhibition zone [5, 11] [mm] | Diameter of inhibition zone [2] [mm] | Diameter of inhibition zone [6, 11] [mm] | Diameter of inhibition zone [7, 11] [mm] | Diameter of inhibition zone [3] [mm] | Diameter of inhibition zone [8, 11] [mm] | other results
Clc1ccccc1C(c1ccccc1)(c1ccccc1)n1ccnc1 [Clotrimazole, reference compound] |  |  |  |  |  |  |  |  | zone of inhibition at 1000 µg/mL [1]: 23 ± 0.3 mm; zone of inhibition at 1000 µg/mL [2]: 18 ± 0.1 mm; zone of inhibition at 1000 µg/mL [3]: 26 ± 0.1 mm
CCCCCCCCCCCCCCCC(=O)O [Compound 1, palmitic acid] | 00.0 | 00.0 | 00.0 | 00.0 | 00.0 | 00.0 | 00.0 | 13.0 | Diameter of inhibition zone [9, 11]: 00.0 mm
CCCCCCCC/C=C\CCCCCCCC(=O)O [Compound 2, oleic acid] | 00.0 | 00.0 | 00.0 | 00.0 | 00.0 | 00.0 | 00.0 | 11.0 ± 0.3 | Diameter of inhibition zone [9, 11]: 00.0 mm
CCCCCCCCCCCCCCCCCC(=O)O [Compound 3, stearic acid] | 00.0 | 00.0 | 00.0 | 00.0 | 00.0 | 00.0 | 00.0 | 15.0 ± 0.5 | Diameter of inhibition zone [9, 11]: 00.0 mm
O=C(O)c1cc(O)c(O)c(O)c1 [Compound 7, 3,4,5-trihydroxy-benzoic acid] | 00.0 | 00.0 | 00.0 | 00.0 | 00.0 | 00.0 | 00.0 | 05.0 ± 0.5 | MIC (Staphylococcus aureus; against Staphylococcus aureus): 130 µg/mL (≈ 764 µM)
CCC(C)n1ncn(-c2ccc(N3CCN(c4ccc(OCC5COC(Cn6cncn6)(c6ccc(Cl)cc6Cl)O5)cc4)CC3)cc2)c1=O (stereo not shown) [Itraconazole, reference compound] |  |  |  |  |  |  |  |  | zone of inhibition at 1000 µg/mL [1]: 27 ± 0.1 mm; zone of inhibition at 1000 µg/mL [2]: 26 ± 0.2 mm; zone of inhibition at 1000 µg/mL [3]: 28 ± 0.5 mm
CO[C@@]1(NC(=O)C(C(=O)O)c2ccc(O)cc2)C(=O)N2C(C(=O)O)=C(CSc3nnnn3C)CO[C@@H]21 (stereo partly shown) [Latamoxef, latamoxef, reference compound] |  |  |  |  |  |  |  |  | wound contraction ([10]; Day 14, topical 30 μg mL^−1): 100%; Wound area on day 0 ([10]; day 0, topical 30 μg mL^−1 once a day, n = 6): 300 ± 0.0 mm^2; Wound area on day 4 ([10]; day 4, topical 30 μg mL^−1 once a day, n = 6): 219.4 ± 9.37** mm^2; Wound area on day 7 ([10]; day 7, topical 30 μg mL^−1 once a day, n = 6): 146.4 ± 5.60*** mm^2; Wound area on day 10 [10, 12]: 42.6 ± 1.85*** mm^2; Wound area on day 10 [10, 13]: 42.6±1.85 mm^2; Wound area on day 14 [10, 12]: 0.0 ± 0.0 mm^2; Wound area on day 14 [10, 13]: 0.0 mm^2
CC1(C)S[C@@H]2[C@H](NC(=O)Cc3ccccc3)C(=O)N2[C@H]1C(=O)O [Penicillin G, reference compound] |  |  |  |  |  |  |  |  | Diameter of inhibition zone ([4]; Standard Antibiotics (1 mg/ml)): 28.3 ± 0.1 mm; Diameter of inhibition zone ([5]; Standard Antibiotics (1 mg/ml)): 33.5 ± 0.8 mm; Diameter of inhibition zone ([6]; Standard Antibiotics (1 mg/ml)): 31.4 ± 0.1 mm; Diameter of inhibition zone ([7]; Standard Antibiotics (1 mg/ml)): 32.5 ± 0.5 mm; Diameter of inhibition zone ([8]; Standard Antibiotics (1 mg/ml)): 29.5 ± 0.8 mm; Diameter of inhibition zone ([9]; Standard Antibiotics (1 mg/ml)): 34.3 ± 0.4 mm
[H]/N=C(/N)N[C@H]1[C@H](O)[C@@H](O)[C@H](O[C@@H]2O[C@@H](C)[C@](O)(C=O)[C@H]2O[C@@H]2O[C@@H](CO)[C@H](O)[C@@H](O)[C@@H]2NC)[C@@H](N/C(N)=N\[H])[C@@H]1O [Streptomycin, reference compound] |  |  |  |  |  |  |  |  | Diameter of inhibition zone ([4]; Standard Antibiotics (1 mg/ml)): 24.0 ± 0.1 mm; Diameter of inhibition zone ([5]; Standard Antibiotics (1 mg/ml)): 25.0 ± 0.3 mm; Diameter of inhibition zone ([6]; Standard Antibiotics (1 mg/ml)): 24.0 ± 0.4 mm; Diameter of inhibition zone ([7]; Standard Antibiotics (1 mg/ml)): 29.0 ± 0.4 mm; Diameter of inhibition zone ([8]; Standard Antibiotics (1 mg/ml)): 25.0 ± 0.2 mm; Diameter of inhibition zone ([9]; Standard Antibiotics (1 mg/ml)): 28.0 ± 0.3 mm
CN[C@H](CC(C)C)C(=O)N[C@H]1C(=O)N[C@@H](CC(N)=O)C(=O)N[C@H]2C(=O)N[C@H]3C(=O)N[C@H](C(=O)N[C@H](C(=O)O)c4cc(O)cc(O)c4-c4cc3ccc4O)[C@H](O)c3ccc(c(Cl)c3)Oc3cc2cc(c3O[C@@H]2O[C@H](CO)[C@@H](O)[C@H](O)[C@H]2O[C@H]2C[C@](C)(N)[C@H](O)[C@H](C)O2)Oc2ccc(cc2Cl)[C@H]1O [Vancomycin, reference compound] |  |  |  |  |  |  |  |  | MIC (Staphylococcus aureus; Staphylococcus aureus): 0.75 µg/mL (≈ 0.518 µM)
Gentamicin [reference compound] |  |  |  |  |  |  |  |  | Minimum inhibitory concentration (Staphylococcus aureus; against Staphylococcus aureus): 0.35 µg/mL
